This is an account of results in patent US12304904B2, “Bicyclic [4,6,0] hydroxamic acids as HDAC inhibitors” (Valo Health, Inc., priority 2015, dated 2025).

Bounds are passed on as bounds.

For the experiment, the target named is T1, HDAC6 (Homo sapiens, UniProt Q9UBN7).
T1 construct: Full length human recombinant HDAC6 protein were expressed in baculoviral system; made in house
T1 sequence (Q9UBN7 1-1215): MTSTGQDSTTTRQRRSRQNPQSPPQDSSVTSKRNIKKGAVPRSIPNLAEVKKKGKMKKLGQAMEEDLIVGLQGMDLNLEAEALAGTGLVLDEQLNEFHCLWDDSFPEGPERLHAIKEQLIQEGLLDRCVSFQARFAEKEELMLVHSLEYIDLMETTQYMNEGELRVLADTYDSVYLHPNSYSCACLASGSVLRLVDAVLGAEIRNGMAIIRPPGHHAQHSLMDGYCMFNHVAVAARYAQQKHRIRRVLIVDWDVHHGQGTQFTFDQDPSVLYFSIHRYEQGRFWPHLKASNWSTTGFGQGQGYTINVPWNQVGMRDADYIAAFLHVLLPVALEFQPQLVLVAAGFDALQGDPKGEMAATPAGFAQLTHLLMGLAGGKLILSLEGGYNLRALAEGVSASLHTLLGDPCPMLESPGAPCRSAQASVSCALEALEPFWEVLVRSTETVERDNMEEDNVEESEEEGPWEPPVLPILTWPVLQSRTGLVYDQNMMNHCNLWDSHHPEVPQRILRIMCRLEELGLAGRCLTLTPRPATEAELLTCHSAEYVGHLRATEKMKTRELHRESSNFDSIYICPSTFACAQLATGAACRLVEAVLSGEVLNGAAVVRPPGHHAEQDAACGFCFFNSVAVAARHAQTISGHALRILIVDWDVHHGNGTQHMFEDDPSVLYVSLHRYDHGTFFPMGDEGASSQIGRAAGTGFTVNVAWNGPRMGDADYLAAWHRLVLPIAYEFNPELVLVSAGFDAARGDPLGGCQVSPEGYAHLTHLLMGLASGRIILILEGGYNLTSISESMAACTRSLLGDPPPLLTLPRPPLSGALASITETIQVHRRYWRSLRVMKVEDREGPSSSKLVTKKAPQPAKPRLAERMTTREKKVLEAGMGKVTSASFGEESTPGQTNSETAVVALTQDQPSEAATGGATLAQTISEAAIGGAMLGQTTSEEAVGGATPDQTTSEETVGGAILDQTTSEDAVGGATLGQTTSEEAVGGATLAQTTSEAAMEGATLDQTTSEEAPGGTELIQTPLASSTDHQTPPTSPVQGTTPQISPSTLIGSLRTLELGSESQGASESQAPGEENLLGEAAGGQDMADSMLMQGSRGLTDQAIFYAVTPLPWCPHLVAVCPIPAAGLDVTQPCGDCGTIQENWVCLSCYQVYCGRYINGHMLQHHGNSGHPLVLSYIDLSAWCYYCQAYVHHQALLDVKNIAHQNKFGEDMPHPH
Briefly: In vitro histone deacetylase assay: enzymatic HDAC6 electrophoretic mobility shift assay. The format is biochemical. Conditions: full length human recombinant HDAC6, 1 nM enzyme, 2 μM peptide substrate RHKK(Ac)-NH2, 25° C.; read-out: Inhibitory Concentration (IC50) against HDAC6, Activity Range. The procedure:
The enzymatic HDAC6 assay was performed using electrophoretic mobility shift assay. Full length human recombinant HDAC6 protein were expressed in baculoviral system and purified by affinity chromatography. The enzymatic reactions were assembled in 384 well plates in a total volume of 25 μL in a reaction buffer composing: 100 mM HEPES, pH7.5, 25 mM KCl, 0.1% bovine serum albumin, 0.01% Triton X-100, 1% DMSO (from compounds) 2 μM of the fluorescently labeled peptide substrate and enzyme. The enzyme was added at a final concentration of 1 nM. The peptide substrate RHKK(Ac)—NH2 was used. The compounds were tested at 12 concentrations spaced by 3× dilution intervals. Negative control samples (0%-inhibition in the absence of inhibitor) and positive control samples (100%-inhibition) were assembled in replicates of four in each assay plate. The reactions were incubated at 25° C. and quenched by the addition of 45 μL of termination buffer (100 mM HEPES, pH 7.5, 0.01% Triton X-100, 0.05% SDS).
The terminated assay plates were analyzed on LabChip® 3000 microfluidic electrophoresis instrument (Perkin Elmer/Caliper Life Sciences). The fluorescence intensity of the electrophoretically separated de-acetylated product and substrate peptide were measured. Activity in each sample was determined as the product to sum ratio (PSR): P/(S+P), where P is the peak height of the product peptide and S is the peak height of the substrate peptide. Percent inhibition (Pinh) was determined using the following equation:
Pinh=(PSR0%−PSRinh)/(PSR0%−PSR100%)*100, where PSRinh is the product sum ratio in the presence of inhibitor, PSR0% is the average product sum ration in the absence of inhibitor and PSR100% is the average product sum ratio in 100%-inhibition control samples. The IC50 values of inhibitors are determined by fitting the %-inhibition curves with 4 parameter dose-response model using XLfit 4 software.
Regarding `O=C(NO)c1ccc2c(c1)OCCCN(C(=O)C1CCOCC1)C2` [N-hydroxy-5-(tetrahydro-2H-pyran-4-carbonyl)-3,4,5,6-tetrahydro-2H-benzo[b][1,5]oxazocine-9-carboxamide], the IC50 is 100 to 500 nM.
Take `CC1(C(=O)N2CCCOc3cc(C(=O)NO)ccc3C2)CCOCC1` [N-hydroxy-5-(4-methyltetrahydro-2H-pyran-4-carbonyl)-3,4,5,6-tetrahydro-2H-benzo[b][1,5]oxazocine-9-carboxamide]: the IC50 was no more than 100 nM.
On to `O=C(NO)c1ccc2c(c1)OCCCNC2` [N-hydroxy-3,4,5,6-tetrahydro-2H-benzo[b][1,5]oxazocine-9-carboxamide], for which the IC50 is greater than 500 nM.
